According to patent publication US20050215544A1, “Methods of treating HIV infection” (priority 2004, published 2005):
pEC50: −log10 of the molar value.

Experiments:
HIV-1 LAI [1] = assay: microbe, parasite or virus in culture
Experimental: (§1) Virus and cell lines. The T-cell lines, MT-2 and PM-1 were obtained through the AIDS Research and Reference Reagent Program, NIAID, and were contributed by Dr. D. Richman and Dr. R. Gallo, respectively. Both cell lines were cultured in RPMI 1640 medium supplemented with 10% fetal bovine serum, 2 mM L-glutamine and sub-cultured twice a week. The LAI strain of HIV-1 was obtained from the Fred Hutchinson Cancer Research Center, and the Bal strain was from NIH. Both virus stocks were amplified and titered in MT-2 cells (LAI) and PM-1 cells (Bal) using a virus infectivity assay.
(§2) Drug Susceptibility and Cytotoxicity Assays. For drug susceptibility assays, MT-2 cells were infected with HIV-1 LAI (or PM-1 cells with HIV-1 Bal) at an MOI of 0.005, and seeded into 96-well microtiter plates ([…] cells/ml) containing serial dilutions of test compounds. […] Each drug ratio consisted of an array of 3-fold serial dilutions, and was performed in quadruplicate. The plates were incubated at 37° C./5% CO2. The MT-2 cells infected with HIV-1 LAI were incubated for 5 days. On day-five post-infection, 20 μl from each well was harvested and quantitated by a reverse transcriptase (RT) assay, or in samples involving non-nucleoside RT inhibitors, an MTS assay. The PM-1 cells infected with HIV-1 Bal and used for studying the combinations with CCR5 inhibitors were incubated for six days. On day-six post-infection, 20 μl from each well was harvested, 20- and 50-fold diluted and quantitated by p24 assay. Cytotoxicity assays were performed using uninfected cells, exposed to the same drug combinations, and incubated for six days. Cell viability was determined by an MTS assay. The CC50 values were calculated by using the exponential form of the median effect equation as mentioned below for calculation of EC50.
(§3) In this equation, Fa stands for “fraction affected,” and represents the fraction of the viral load that has been inactivated. […] ED50 is drug concentration that is expected to reduce the amount of virus by 50%, and m is a parameter that reflects the slope of the concentration-response curve.
In carrying out the combination experiments below, the EC50 for Compound 1 and each comparator compound was determined during the course of each study, and used in the subsequent data analysis.

HIV-1 LAI [2] = assay: Two-drug combination antiviral assay with Compound 1 (combination indices, Chou and Rideout); assay type: cell-based; details: combination with Compound 1; for Combination Indices at 50% HIV Inhibition (Confidence Interval) / Combination Indices at 75% HIV Inhibition (Confidence Interval) / Combination Indices at 90% HIV Inhibition (Confidence Interval): 95% CI in parenthesis; for Overall Result of two-drug combination: all ratios and inhibition levels
Experimental: as §1, §2
Analysis of Drug Combination Effects. For determination of CI values, drugs were diluted in a fixed ratio and multiple ratios were analyzed. The drug serial dilutions spanned a range of concentrations near the EC50 value of each compound, so that equivalent antiviral activities could be compared. Concentration-response curves were estimated for each individual drug and every combination using the median-effect equation. The equation was fit using a nonlinear regression routine (Proc Nlin) in PC SAS version 8.01 (SAS Institute Inc., SAS Version 8.01, Cary, NC: SAS Institute Inc., 1990).
as §3
To assess antiviral effects of different drug combination treatments, combination indices (CIs) were calculated according to Chou and Rideout. The combination index was computed as CI=[D]1/[Dm]1+[D]2/[Dm]2
In this equation [Dm]1 and [Dm]2 are the concentrations of drugs that would individually produce a specific level of effect, while [D]1 and [D]2 are the concentrations of drugs in combination that would produce the same level of effect.
Theoretically, additivity is implied if the CI is equal to one, synergy if the CI is less than one, and antagonism if the CI is greater than one. […] At best, we can construct a range that contains the likely values for the CI, given the noise in the data. In this report, these ranges are reported in parentheses next to each point estimate of the CI. […] If the range fell entirely above 1.0, we would infer antagonistic behavior. If the range were to include 1.0, we would infer additivity.

uninfected cells = assay: Cytotoxicity assay of the drug combinations in uninfected cells (MTS); assay type: cell-based; details: combination with Compound 1 at highest concentrations tested, six days
Experimental: Drug Susceptibility and Cytotoxicity Assays. […] Each drug ratio consisted of an array of 3-fold serial dilutions, and was performed in quadruplicate. The plates were incubated at 37° C./5% CO2. […] On day-five post-infection, 20 μl from each well was harvested and quantitated by a reverse transcriptase (RT) assay, or in samples involving non-nucleoside RT inhibitors, an MTS assay. The PM-1 cells infected with HIV-1 Bal and used for studying the combinations with CCR5 inhibitors were incubated for six days. On day-six post-infection, 20 μl from each well was harvested, 20- and 50-fold diluted and quantitated by p24 assay. Cytotoxicity assays were performed using uninfected cells, exposed to the same drug combinations, and incubated for six days. Cell viability was determined by an MTS assay. The CC50 values were calculated by using the exponential form of the median effect equation as mentioned below for calculation of EC50.

[3] = EC50 ratio 1:1 (Compound 1 to comparator)
[4] = EC50 ratio 1:2.5 (Compound 1 to comparator)
[5] = EC50 ratio 2.5:1 (Compound 1 to comparator)
[6] = Human immunodeficiency virus 1, MT2, 120 h

Compound | pEC50 (HIV-1 LAI [1]; MT-2 cells infected with HIV-1 LAI, MOI 0.005, 5 days, single drug) | Combination Indices at 50% HIV Inhibition (Confidence Interval) (HIV-1 LAI [2]; [3]) | Combination Indices at 75% HIV Inhibition (Confidence Interval) (HIV-1 LAI [2]; [3]) | Combination Indices at 90% HIV Inhibition (Confidence Interval) (HIV-1 LAI [2]; [3]) | Combination Indices at 50% HIV Inhibition (Confidence Interval) (HIV-1 LAI [2]; [4]) | Combination Indices at 75% HIV Inhibition (Confidence Interval) (HIV-1 LAI [2]; [4]) | Combination Indices at 90% HIV Inhibition (Confidence Interval) (HIV-1 LAI [2]; [4]) | Combination Indices at 50% HIV Inhibition (Confidence Interval) (HIV-1 LAI [2]; [5]) | Combination Indices at 75% HIV Inhibition (Confidence Interval) (HIV-1 LAI [2]; [5]) | Combination Indices at 90% HIV Inhibition (Confidence Interval) (HIV-1 LAI [2]; [5]) | Overall Result of two-drug combination (HIV-1 LAI [2]) | Overall Result of two-drug combination (HIV-1 LAI [2]; listed as enfuvurtide) | Cytotoxicity of the drug combination (uninfected cells) | pEC50 (HIV-1 LAI [1]; [6])
enfuvirtide | 8.22 | 0.17 (0.13, 0.21) | 0.42 (0.29, 0.55) | 1.03 (0.49, 1.58) | 0.14 (0.11, 0.18) | 0.30 (0.21, 0.39) | 0.65 (0.32, 0.97) | 0.26 (0.21, 0.31) | 0.46 (0.34, 0.58) | 0.82 (0.46, 1.18) | Moderate- | moderate synergistic | No significant cytotoxicity | –
c1cc(CN2CCCNCCNCCCNCC2)ccc1CN1CCCNCCNCCCNCC1 [AMD-3100] | – | 0.51 (0.34, 0.69) | 0.63 (0.33, 0.94) | 0.89 (0.22, 1.57) | 0.65 (0.49, 0.80) | 0.55 (0.37, 0.74) | 0.58 (0.27, 0.89) | 0.56 (0.38, 0.73) | 0.62 (0.18, 0.90) | 0.74 (0.22, 1.26) | moderate synergistic | – | No significant cytotoxicity | 8.40
CON(Cc1ccc(F)cc1)C(=O)C=C(O)C(=O)O [Compound 2, 3-[(4-Fluorobenzyl)methoxycarbamoyl]-2-hydroxyacrylic acid] | – | 0.42 (0.32, 0.52) | 0.49 (0.33, 0.64) | 0.57 (0.28, 0.85) | 0.38 (0.30, 0.46) | 0.42 (0.30, 0.55) | 0.48 (0.26, 0.69) | 0.46 (0.34, 0.59) | 0.66 (0.41, 0.92) | 0.96 (0.37, 1.54) | Synergistic | – | No significant cytotoxicity | 7.08
